Source: ChEMBL document CHEMBL4425084, “Development of Heat Shock Protein (Hsp90) Inhibitors To Combat Resistance to Tyrosine Kinase Inhibitors through Hsp90-Kinase Interactions” (J Med Chem, 2016)

How the values were obtained:
Bcr/Abl fusion protein [1] = target: Bcr/Abl fusion protein (Homo sapiens, UniProt P00519, T315I); experiment: Inhibition of imatinib-resistant BCR-ABL T315I mutant (unknown origin) expressed in mouse BA/F3 cells assessed as decrease in cell viability after 48 hrs by trypan blue exclusion assay; type: cell-based
Bcr/Abl fusion protein [2] = target: Bcr/Abl fusion protein (Homo sapiens, UniProt P00519); experiment: Inhibition of BCR-ABL (unknown origin) expressed in mouse BA/F3 cells assessed as decrease in cell viability after 48 hrs by trypan blue exclusion assay; type: cell-based
Bcr/Abl fusion protein [3] = target: Bcr/Abl fusion protein (Homo sapiens, UniProt P00519, E255K); experiment: Inhibition of imatinib-resistant BCR-ABL E255K mutant (unknown origin) expressed in mouse BA/F3 cells assessed as decrease in cell viability after 48 hrs by trypan blue exclusion assay; type: cell-based
[4] = Toxicity in human H3255 cells expressing L858R EGFR mutant xenografted in mouse administered ip 3 times per week; type: organism-based; settings: in vivo
[5] = Toxicity in human H1975 cells xenografted in mouse administered ip 3 times per week; type: organism-based; settings: in vivo
[6] = Toxicity in human H1650 cells expressing E746-A750 EGFR deletion mutant xenografted in mouse administered ip 3 times per week; type: organism-based; settings: in vivo
[7] = Cytotoxicity against human NB39 cells assessed as decrease in cell viability after 72 hrs by CellTiter-Glo luminescence assay; settings: NB39, 72 h
[8] = Inhibition of E6a/b;A20 EML4-ALK (unknown origin) expressed in human NCI-H2228 cells assessed as decrease in cell viability after 72 hrs by CellTiter-Glo luminescence assay; settings: NCI-H2228, 72 h
[9] = Inhibition of E13;A20 EML4-ALK variant (unknown origin) expressed in human NCI-H3122 cells assessed as decrease in cell viability after 72 hrs by CellTiter-Glo luminescence assay; type: cell-based; settings: NCI-H3122, 72 h
GIST430 = experiment: Cytotoxicity against imatinib-resistant human GIST430 cells assessed as decrease in cell viability after 7 days by alamar blue assay; type: functional, cell-based; settings: GIST430, 168 h
[10] = Toxicity in iv dosed NSCLC patient dosed weekly for 3 weeks on four week cycle during phase-1 clinical trial; type: organism-based; settings: human, in vivo, 504 h
GIST48 = experiment: Cytotoxicity against imatinib-resistant human GIST48 cells assessed as decrease in cell viability after 7 days by alamar blue assay; type: functional, cell-based; settings: GIST48, 168 h
HCC827 = experiment: Cytotoxicity against gefitinib-resistant human HCC827 cells assessed as inhibition of cell proliferation by MTS assay; type: functional, cell-based
cells = settings: Homo sapiens, BaF3, 24 h
A-375 [11] = experiment: animal or person; settings: Mus musculus, A-375, iv, read-out: TGI
Description: Antitumor activity against vemurafenib-resistant human A375 cells xenografted in mouse assessed as tumor growth inhibition at 150 mg/kg, iv dosed as weekly treatment in presence of selumetinib

A-375 [12] = experiment: Cytotoxicity against human A375 cells assessed as decrease in cell viability after 72 hrs by CellTiter-Glo luminescence assay; type: functional, cell-based; settings: A-375, 72 h
Mus musculus [13] = experiment: In vivo inhibition of BCR-ABL/T315I mutant expressed in bone marrow cells transplanted in mouse assessed as level of cells expressing gatekeeper mutation at 100 mg/kg, bid measured after 15 days; type: functional; design: scale not given: the % may be the effect or the level left
Mus musculus [14] = experiment: In vivo inhibition of BCR-ABL/T315I mutant expressed in bone marrow cells transplanted in mouse assessed as level of cells expressing gatekeeper mutation at 50 mg/kg once every 2 days measured after 28 days; type: functional; design: scale not given: the % may be the effect or the level left
NCI-H3122 = experiment: Cytotoxicity against crizotinib-resistant human NCI-H3122 cells assessed as cell growth inhibition after 72 hrs by trypan blue exclusion assay; type: functional; settings: NCI-H3122, 72 h
PC-9 = experiment: Cytotoxicity against HGF-induced erlotinib-resistant human PC9 cells assessed as inhibition of cell growth after 72 hrs by MTT assay; type: functional, cell-based; settings: PC-9, 72 h
[15] = Cytotoxicity against HGF-induced erlotinib-resistant human Ma1 cells assessed as inhibition of cell growth after 72 hrs by MTT assay; type: functional, cell-based

Molecule `COC1=C2C[C@@H](C)C[C@H](OC)[C@H](O)[C@@H](C)/C=C(\C)[C@H](OC(N)=O)[C@@H](OC)/C=C\C=C(/C)C(=O)NC(=CC1=O)C2=O` [GELDANAMYCIN] has an IC50 (Bcr/Abl fusion protein [1]) of 1000 to 2000 nM, an IC50 (Bcr/Abl fusion protein [2]) of 5000 nM and an IC50 (Bcr/Abl fusion protein [3]) of 1000 to 2000 nM.
Work on `C=CCNC1=C2C[C@@H](C)C[C@H](OC)[C@H](O)[C@@H](C)/C=C(\C)[C@H](OC(N)=O)[C@@H](OC)/C=C\C=C(/C)C(=O)NC(=CC1=O)C2=O` [TANESPIMYCIN] yielded an MTD [4] of 75 mg/kg, an IC50 (Bcr/Abl fusion protein [1]) of 1000 to 2000 nM and an IC50 (Bcr/Abl fusion protein [2]) of 5000 nM. The MTD [5] was 75 mg/kg, the IC50 (Bcr/Abl fusion protein [3]) was 1000 to 2000 nM and the MTD [6] was 75 mg/kg.
`C[C@@H](Oc1cc(-c2cnn(C3CCNCC3)c2)cnc1N)c1c(Cl)ccc(F)c1Cl` [CRIZOTINIB] showed an IC50 [7] of 240 nM, an IC50 [8] of 202 nM and an IC50 [9] of 300 nM.
Molecule `CC(C)c1cc(C(=O)N2Cc3ccc(CN4CCN(C)CC4)cc3C2)c(O)cc1O` [ONALESPIB] has an IC50 (GIST430) of 34 nM, an MTD [10] of 260 mg/m2 and an IC50 (GIST48) of 55 nM.
`CCNC(=O)c1noc(-c2cc(C(C)C)c(O)cc2O)c1-c1ccc(CN2CCOCC2)cc1` [LUMINESPIB] gave an IC50 (HCC827) of 7 nM.
`CC(C)c1cc(-c2n[nH]c(=O)n2-c2ccc3c(ccn3C)c2)c(O)cc1O` [GANETESPIB] showed an IC50 [7] of 10 nM, an IC50 (cells) of 11 nM and an IC50 [8] of 13 nM. It also gave an inhibition in vivo at 150 mg/kg (A-375 [11]) of 84%, an IC50 (A-375 [12]) of 15 nM and an IC50 [9] of 10 nM.
`Cc1ccc(NC(=O)c2ccc(CN3CCN(C)CC3)cc2)cc1Nc1nccc(-c2cccnc2)n1` [IMATINIB] showed an Activity (Mus musculus [13]) of 81.5%.
For `C=CCNc1c(O)cc2c(O)c1C[C@@H](C)C[C@H](OC)[C@H](O)[C@@H](C)/C=C(\C)[C@H](OC(N)=O)[C@@H](OC)/C=C\C=C(/C)C(=O)N2.Cl` [RETASPIMYCIN HYDROCHLORIDE], the Activity (Mus musculus [14]) was 0.5% and the GI50 (NCI-H3122) was 76 nM.
In the case of `CCCS(=O)(=O)Nc1ccc(F)c(C(=O)c2c[nH]c3ncc(-c4ccc(Cl)cc4)cc23)c1F` [VEMURAFENIB], the IC50 (A-375 [12]) is reported as 81 nM.
In the case of `CO[C@H]1/C=C\C=C(/C)C(=O)NC2=CC(=O)C(NCCN(C)C)=C(C[C@@H](C)C[C@H](OC)[C@H](O)[C@@H](C)/C=C(\C)[C@@H]1OC(N)=O)C2=O` [ALVESPIMYCIN], the IC50 (PC-9) is reported as 10 to 30 nM and the IC50 [15] is reported as 10 to 30 nM.
